Measurements published in the kinase profiling compilation of Christmann-Franck et al. (2016).
Where “and” joins values, the source holds several entries; their conditions need not be identical. Equal entries are not always repeated. Values belong to the molecule of their own block, whether it stands above or below them.

Legend:
Test in all cases: radiometric filter-binding kinase assay, Kinase HotSpot
Details in all cases: compound 0.5 µM; ATP 10 µM
[1] = target: CDK2 CCNA2 (human) (UniProt P24941+P20248)
[2] = target: ERBB2 (human) (UniProt P04626)
Chain of ERBB2 (human) (P04626 whole entry, looked up): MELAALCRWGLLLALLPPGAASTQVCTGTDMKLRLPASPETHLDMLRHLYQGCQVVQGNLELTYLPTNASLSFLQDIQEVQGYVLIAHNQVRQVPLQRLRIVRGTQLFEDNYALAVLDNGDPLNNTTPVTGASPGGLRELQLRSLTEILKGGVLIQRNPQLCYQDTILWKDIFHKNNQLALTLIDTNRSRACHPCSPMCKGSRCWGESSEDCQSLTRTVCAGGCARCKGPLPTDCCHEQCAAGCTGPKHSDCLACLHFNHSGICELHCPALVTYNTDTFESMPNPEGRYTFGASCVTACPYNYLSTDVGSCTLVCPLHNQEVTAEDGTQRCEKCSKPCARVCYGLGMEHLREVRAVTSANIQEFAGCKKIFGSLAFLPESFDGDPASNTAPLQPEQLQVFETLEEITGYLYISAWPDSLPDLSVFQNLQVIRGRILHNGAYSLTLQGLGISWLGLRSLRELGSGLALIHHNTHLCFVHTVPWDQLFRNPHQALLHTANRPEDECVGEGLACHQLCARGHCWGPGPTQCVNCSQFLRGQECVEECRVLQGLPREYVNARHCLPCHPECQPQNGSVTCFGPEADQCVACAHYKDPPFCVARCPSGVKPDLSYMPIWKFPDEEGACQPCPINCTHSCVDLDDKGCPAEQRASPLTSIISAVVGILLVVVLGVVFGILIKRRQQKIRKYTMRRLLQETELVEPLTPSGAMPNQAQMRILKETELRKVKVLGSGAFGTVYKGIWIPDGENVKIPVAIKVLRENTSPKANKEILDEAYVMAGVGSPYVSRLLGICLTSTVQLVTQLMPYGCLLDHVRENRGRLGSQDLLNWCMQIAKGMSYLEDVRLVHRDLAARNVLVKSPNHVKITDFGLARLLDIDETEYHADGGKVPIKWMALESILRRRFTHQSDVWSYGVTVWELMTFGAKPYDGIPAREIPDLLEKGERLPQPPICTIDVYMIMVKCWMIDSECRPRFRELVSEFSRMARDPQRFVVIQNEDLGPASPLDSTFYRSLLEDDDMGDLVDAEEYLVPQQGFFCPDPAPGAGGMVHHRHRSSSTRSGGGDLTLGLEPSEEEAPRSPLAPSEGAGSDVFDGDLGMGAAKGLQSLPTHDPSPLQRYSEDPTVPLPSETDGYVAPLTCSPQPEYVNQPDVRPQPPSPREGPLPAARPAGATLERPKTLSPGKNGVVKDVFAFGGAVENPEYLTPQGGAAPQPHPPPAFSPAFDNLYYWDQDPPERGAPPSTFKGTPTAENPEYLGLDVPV

[3] = target: DYRK3 (human) (UniProt O43781)
Chain of DYRK3 (human) (O43781 whole entry, looked up): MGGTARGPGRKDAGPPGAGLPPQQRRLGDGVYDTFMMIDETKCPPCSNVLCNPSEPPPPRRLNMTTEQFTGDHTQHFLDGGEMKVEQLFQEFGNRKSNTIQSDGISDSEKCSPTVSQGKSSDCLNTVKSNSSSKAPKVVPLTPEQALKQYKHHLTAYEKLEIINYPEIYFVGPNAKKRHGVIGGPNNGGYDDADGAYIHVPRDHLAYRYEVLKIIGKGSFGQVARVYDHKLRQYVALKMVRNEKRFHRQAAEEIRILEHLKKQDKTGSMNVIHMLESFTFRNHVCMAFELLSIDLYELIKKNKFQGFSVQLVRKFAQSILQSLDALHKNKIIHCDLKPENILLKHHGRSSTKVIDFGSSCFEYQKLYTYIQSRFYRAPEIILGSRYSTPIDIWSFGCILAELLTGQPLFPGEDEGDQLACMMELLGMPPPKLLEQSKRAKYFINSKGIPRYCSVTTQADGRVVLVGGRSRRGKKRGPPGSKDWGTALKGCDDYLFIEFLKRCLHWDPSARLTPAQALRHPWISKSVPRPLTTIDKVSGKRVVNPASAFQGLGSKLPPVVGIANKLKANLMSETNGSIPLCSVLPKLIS

[4] = target: MUSK (human) (UniProt O15146)
[5] = target: HCK (human) (UniProt P08631)
Chain of HCK (human) (P08631 whole entry, looked up): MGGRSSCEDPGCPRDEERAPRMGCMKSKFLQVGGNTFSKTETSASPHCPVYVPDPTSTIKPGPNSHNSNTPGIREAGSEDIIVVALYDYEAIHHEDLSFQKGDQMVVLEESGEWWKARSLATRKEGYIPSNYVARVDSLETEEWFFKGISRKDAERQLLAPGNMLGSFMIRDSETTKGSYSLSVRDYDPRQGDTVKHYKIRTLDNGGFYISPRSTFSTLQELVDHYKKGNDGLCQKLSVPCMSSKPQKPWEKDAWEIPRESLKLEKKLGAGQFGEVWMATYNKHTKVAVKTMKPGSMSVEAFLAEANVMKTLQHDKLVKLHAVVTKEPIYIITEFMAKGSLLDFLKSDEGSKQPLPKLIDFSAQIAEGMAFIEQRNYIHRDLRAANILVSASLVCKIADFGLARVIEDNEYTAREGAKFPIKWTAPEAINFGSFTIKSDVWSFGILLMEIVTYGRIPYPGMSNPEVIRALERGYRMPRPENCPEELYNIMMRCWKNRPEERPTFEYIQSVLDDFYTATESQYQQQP

[6] = target: MELK (human) (UniProt Q14680)
[7] = target: MAPKAPK2 (human) (UniProt P49137)
[8] = target: DMPK (human) (UniProt Q09013)
[9] = target: MAP3K11 (human) (UniProt Q16584)
[10] = target: HIPK3 (human) (UniProt Q9H422)
[11] = target: NEK7 (human) (UniProt Q8TDX7)
[12] = target: NUAK1 (human) (UniProt O60285)
[13] = target: EPHA3 (human) (UniProt P29320)
[14] = target: INSR (human) (UniProt P06213)
[15] = target: NEK3 (human) (UniProt P51956)
[16] = target: ROCK1 (human) (UniProt Q13464)
[17] = target: CDK1 CCNA2 (human) (UniProt P06493+P20248)
[18] = target: DSTYK (human) (UniProt Q6XUX3)
[19] = target: CLK2 (human) (UniProt P49760)
Chain of CLK2 (human) (P49760 whole entry, looked up): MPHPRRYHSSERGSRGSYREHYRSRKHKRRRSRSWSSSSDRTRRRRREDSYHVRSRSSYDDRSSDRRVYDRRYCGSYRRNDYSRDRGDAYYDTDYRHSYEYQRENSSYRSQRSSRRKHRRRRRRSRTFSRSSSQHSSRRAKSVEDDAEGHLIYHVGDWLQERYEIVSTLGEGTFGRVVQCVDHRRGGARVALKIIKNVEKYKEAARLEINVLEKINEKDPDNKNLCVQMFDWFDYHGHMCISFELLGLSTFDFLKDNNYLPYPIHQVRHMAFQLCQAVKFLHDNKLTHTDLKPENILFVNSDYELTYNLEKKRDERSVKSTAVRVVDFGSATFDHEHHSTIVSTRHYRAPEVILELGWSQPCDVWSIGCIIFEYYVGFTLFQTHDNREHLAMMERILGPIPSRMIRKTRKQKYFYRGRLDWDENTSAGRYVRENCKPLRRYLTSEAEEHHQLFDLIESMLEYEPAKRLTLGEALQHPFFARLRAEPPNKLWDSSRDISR

[20] = target: TBK1 (human) (UniProt Q9UHD2)
[21] = target: AKT2 (human) (UniProt P31751)
[22] = target: MAPKAPK3 (human) (UniProt Q16644)
[23] = target: VRK1 (human) (UniProt Q99986)
[24] = target: TSSK2 (human) (UniProt Q96PF2)
Chain of TSSK2 (human) (Q96PF2 whole entry, looked up): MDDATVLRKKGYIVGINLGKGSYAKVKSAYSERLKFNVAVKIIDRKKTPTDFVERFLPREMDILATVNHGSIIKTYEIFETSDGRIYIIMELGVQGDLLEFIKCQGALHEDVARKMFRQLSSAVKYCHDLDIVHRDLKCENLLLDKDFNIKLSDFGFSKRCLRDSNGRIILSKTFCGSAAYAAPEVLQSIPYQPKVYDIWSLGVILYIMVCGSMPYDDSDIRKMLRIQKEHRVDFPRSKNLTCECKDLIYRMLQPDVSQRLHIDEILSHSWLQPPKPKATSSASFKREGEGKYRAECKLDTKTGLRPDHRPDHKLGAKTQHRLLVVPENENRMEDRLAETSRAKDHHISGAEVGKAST

[25] = target: PLK2 (human) (UniProt Q9NYY3)
Chain of PLK2 (human) (Q9NYY3 whole entry, looked up): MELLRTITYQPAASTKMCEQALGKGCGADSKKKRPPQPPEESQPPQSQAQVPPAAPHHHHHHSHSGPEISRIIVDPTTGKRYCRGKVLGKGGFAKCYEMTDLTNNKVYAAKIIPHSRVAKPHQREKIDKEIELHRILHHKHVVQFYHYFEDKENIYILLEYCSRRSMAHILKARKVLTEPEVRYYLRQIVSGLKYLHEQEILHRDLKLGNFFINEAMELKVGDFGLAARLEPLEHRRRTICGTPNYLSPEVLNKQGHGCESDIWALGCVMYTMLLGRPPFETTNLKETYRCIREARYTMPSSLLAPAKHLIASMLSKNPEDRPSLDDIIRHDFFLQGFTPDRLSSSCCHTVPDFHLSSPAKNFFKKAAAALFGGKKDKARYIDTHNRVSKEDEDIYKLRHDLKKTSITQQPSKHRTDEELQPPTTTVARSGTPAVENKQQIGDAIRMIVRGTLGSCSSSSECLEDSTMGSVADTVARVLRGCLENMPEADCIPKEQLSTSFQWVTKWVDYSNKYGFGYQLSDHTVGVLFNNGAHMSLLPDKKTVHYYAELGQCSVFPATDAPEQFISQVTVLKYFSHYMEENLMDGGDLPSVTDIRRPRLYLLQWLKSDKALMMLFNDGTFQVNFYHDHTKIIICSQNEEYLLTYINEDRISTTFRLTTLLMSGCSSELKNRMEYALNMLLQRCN

[26] = target: BRSK2 (human) (UniProt Q8IWQ3)
[27] = target: PAK4 (human) (UniProt O96013)
Chain of PAK4 (human) (O96013 whole entry, looked up): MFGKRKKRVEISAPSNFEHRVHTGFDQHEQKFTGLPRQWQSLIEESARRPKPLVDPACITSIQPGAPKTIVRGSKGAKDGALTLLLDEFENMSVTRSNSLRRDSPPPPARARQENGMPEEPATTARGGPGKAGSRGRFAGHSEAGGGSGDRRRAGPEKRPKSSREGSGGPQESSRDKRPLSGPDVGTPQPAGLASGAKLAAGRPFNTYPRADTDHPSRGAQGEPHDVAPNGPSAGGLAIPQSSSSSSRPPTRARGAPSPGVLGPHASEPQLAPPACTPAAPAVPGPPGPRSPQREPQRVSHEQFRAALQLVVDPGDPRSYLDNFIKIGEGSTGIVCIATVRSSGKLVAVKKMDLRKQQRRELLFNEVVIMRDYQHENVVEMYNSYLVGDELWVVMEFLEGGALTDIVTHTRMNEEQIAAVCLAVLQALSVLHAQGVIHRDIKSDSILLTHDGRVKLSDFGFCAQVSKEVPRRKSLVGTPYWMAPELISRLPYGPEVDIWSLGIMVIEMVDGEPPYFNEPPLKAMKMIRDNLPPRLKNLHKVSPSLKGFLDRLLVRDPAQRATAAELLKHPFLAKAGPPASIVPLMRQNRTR

[28] = target: TSSK1B (human) (UniProt Q9BXA7)
Chain of TSSK1B (human) (Q9BXA7 whole entry, looked up): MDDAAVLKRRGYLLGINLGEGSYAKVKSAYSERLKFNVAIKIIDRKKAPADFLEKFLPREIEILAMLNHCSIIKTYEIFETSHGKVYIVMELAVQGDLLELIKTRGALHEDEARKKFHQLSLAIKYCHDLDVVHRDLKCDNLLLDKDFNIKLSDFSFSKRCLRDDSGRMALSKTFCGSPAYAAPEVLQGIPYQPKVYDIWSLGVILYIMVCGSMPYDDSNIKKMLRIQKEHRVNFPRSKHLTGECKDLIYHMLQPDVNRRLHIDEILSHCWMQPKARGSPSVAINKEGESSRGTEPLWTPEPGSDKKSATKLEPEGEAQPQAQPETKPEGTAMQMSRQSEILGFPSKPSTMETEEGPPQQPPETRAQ

[29] = target: CSNK1G3 (human) (UniProt Q9Y6M4)
[30] = target: RPS6KA2 KD1 KD2 (human) (UniProt Q15349)
[31] = target: NTRK3 (human) (UniProt Q16288)
[32] = target: CSK (human) (UniProt P41240)
[33] = target: PASK (human) (UniProt Q96RG2)
[34] = target: LCK (human) (UniProt P06239)
[35] = target: SRC (human) (UniProt P12931)
[36] = target: MINK1 (human) (UniProt Q8N4C8)
[37] = target: IKBKE (human) (UniProt Q14164)
[38] = target: PAK3 (human) (UniProt O75914)
[39] = target: PRKCB2 (human) (UniProt P05771)
[40] = target: MKNK2 (human) (UniProt Q9HBH9)
[41] = target: LYN (human) (UniProt P07948)
[42] = target: CSNK2A2 (human) (UniProt P19784)

SMILES: CCn1cnc2c(Nc3cccc(Cl)c3)nc(N[C@@H]3CCCC[C@@H]3N)nc21
residual activity [1]: 23.6% | residual activity [2]: 95.6% | residual activity [3]: 83.7% | residual activity [4]: 79.8% | residual activity [5]: 69.6% | residual activity [6]: 77% | residual activity [7]: 94.9% | residual activity [8]: 99.7% | residual activity [9]: 77.6% | residual activity [10]: 102% | residual activity [11]: 86% | residual activity [12]: 52.4% | residual activity [13]: 85.7% | residual activity [14]: 91.3% | residual activity [15]: 100% | residual activity [16]: 96.5% | residual activity [17]: 60.7% | residual activity [18]: 97.8% | residual activity [19]: 26.6% | residual activity [20]: 92.8% | residual activity [21]: 108% | residual activity [22]: 91.3% | residual activity [23]: 103% | residual activity [24]: 109% | residual activity [25]: 95.8% | residual activity [26]: 94% | residual activity [27]: 84.5% | residual activity [28]: 87.4% | residual activity [29]: 45.9% | residual activity [30]: 45.1% | residual activity [31]: 23.4% | residual activity [32]: 85.4% | residual activity [33]: 88% | residual activity [34]: 89.5% | residual activity [35]: 54.7% | residual activity [36]: 95.2% | residual activity [37]: 99.5% | residual activity [38]: 91.9% | residual activity [39]: 79.4% | residual activity [40]: 93.5%

residual activity [1]: 22.3% | residual activity [2]: 114% | residual activity [3]: 91.3% | residual activity [4]: 68.5% | residual activity [5]: 43.1% | residual activity [6]: 93.9% | residual activity [7]: 109% | residual activity [8]: 95.4% | residual activity [9]: 42.5% | residual activity [10]: 76.7% | residual activity [11]: 91.9% | residual activity [12]: 49.4% | residual activity [13]: 88.2% | residual activity [14]: 94.8% | residual activity [15]: 130% | residual activity [16]: 94.6% | residual activity [17]: 77.5% | residual activity [18]: 81.1% | residual activity [41]: 28.1% and 52.4% | residual activity [19]: 96.8% | residual activity [20]: 78.5% | residual activity [21]: 113% | residual activity [22]: 105% | residual activity [23]: 80.7% | residual activity [24]: 101% | residual activity [25]: 100% | residual activity [26]: 43.4% | residual activity [27]: 92.7% | residual activity [28]: 92.4% | residual activity [29]: 101% | residual activity [30]: 51% | residual activity [31]: 15.1% | residual activity [32]: 75.5% | residual activity [33]: 86.2% | residual activity [34]: 53.5% | residual activity [35]: 26.2% | residual activity [36]: 76.1% | residual activity [37]: 81.4% | residual activity [38]: 99.1% | residual activity [39]: 101% | residual activity [40]: 66.9%
SMILES: CC(=O)O/N=C1\C(=C2\C(=O)Nc3cc(Br)ccc32)Nc2ccccc21

SMILES: O=C1NC(=O)C(c2cn(CCCO)c3ncccc23)=C1c1cnccn1
residual activity [1]: 94.8% | residual activity [2]: 106% | residual activity [3]: 79.6% | residual activity [4]: 67.1% | residual activity [5]: 63.4% | residual activity [6]: 101% | residual activity [7]: 91% | residual activity [8]: 99.6% | residual activity [9]: 80.8% | residual activity [10]: 89.2% | residual activity [11]: 95.4% | residual activity [12]: 59.4% | residual activity [13]: 102% | residual activity [14]: 92.9% | residual activity [15]: 97.5% | residual activity [16]: 90.2% | residual activity [17]: 91.8% | residual activity [18]: 78% | residual activity [41]: 101% and 112% | residual activity [19]: 98.9% | residual activity [20]: 98.8% | residual activity [21]: 114% | residual activity [22]: 103% | residual activity [23]: 86.4% | residual activity [24]: 119% | residual activity [25]: 104% | residual activity [26]: 90.4% | residual activity [27]: 111% | residual activity [28]: 94.9% | residual activity [29]: 107% | residual activity [30]: 73.2% | residual activity [31]: 79.7% | residual activity [32]: 86.9% | residual activity [33]: 97.1% | residual activity [34]: 95.8% | residual activity [35]: 78.9% | residual activity [36]: 84.8% | residual activity [37]: 90% | residual activity [38]: 92.9% | residual activity [40]: 69.1%

SMILES: COc1ccc(CNC(=O)Nc2ncc([N+](=O)[O-])s2)cc1
residual activity [1]: 93.3% | residual activity [2]: 96.9% | residual activity [3]: 105% | residual activity [4]: 115% | residual activity [5]: 96.7% | residual activity [42]: 92.9% | residual activity [7]: 112% | residual activity [8]: 101% | residual activity [9]: 101% | residual activity [10]: 91.9% | residual activity [11]: 99.4% | residual activity [12]: 99.7% | residual activity [13]: 111% | residual activity [15]: 78.6% | residual activity [16]: 102% | residual activity [17]: 93.4% | residual activity [18]: 96.2% | residual activity [41]: 91.4% and 97.7% | residual activity [19]: 97.4% | residual activity [20]: 104% | residual activity [21]: 103% | residual activity [22]: 103% | residual activity [23]: 95% | residual activity [24]: 105% | residual activity [25]: 104% | residual activity [26]: 93.1% | residual activity [27]: 115% | residual activity [28]: 106% | residual activity [29]: 90.4% | residual activity [30]: 100% | residual activity [31]: 98.7% | residual activity [32]: 102% | residual activity [33]: 106% | residual activity [34]: 101% | residual activity [35]: 101% | residual activity [36]: 90.5% | residual activity [37]: 99.8% | residual activity [38]: 94.6% | residual activity [39]: 103% | residual activity [40]: 95.7%

SMILES: CN([C@@H](Cc1ccc(OS(=O)(=O)c2cccc3cnccc23)cc1)C(=O)N1CCN(c2ccccc2)CC1)S(=O)(=O)c1cccc2cnccc12
residual activity [1]: 99.8% | residual activity [2]: 96% | residual activity [3]: 112% | residual activity [4]: 92.7% | residual activity [5]: 97.4% | residual activity [42]: 121% | residual activity [7]: 103% | residual activity [8]: 108% | residual activity [9]: 105% | residual activity [10]: 110% | residual activity [11]: 93.3% | residual activity [12]: 97.5% | residual activity [13]: 102% | residual activity [14]: 98.8% | residual activity [15]: 99.8% | residual activity [16]: 97.9% | residual activity [18]: 97.4% | residual activity [41]: 101% and 92.1% | residual activity [19]: 93% | residual activity [20]: 101% | residual activity [21]: 106% | residual activity [22]: 101% | residual activity [23]: 92.1% | residual activity [24]: 105% | residual activity [25]: 102% | residual activity [26]: 100% | residual activity [27]: 94.6% | residual activity [28]: 95.4% | residual activity [29]: 104% | residual activity [30]: 102% | residual activity [31]: 97.5% | residual activity [32]: 96.2% | residual activity [33]: 103% | residual activity [34]: 97.5% | residual activity [35]: 91.3% | residual activity [36]: 98.2% | residual activity [37]: 92.6% | residual activity [38]: 102% | residual activity [40]: 104%
